The values that follow come from patent publication US9849132B2, “Products and pharmaceutical compositions” (Intra-Cellular Therapies, Inc., priority 2014, dated 2017).

In this assay the target is PDE1 (3′,5′-cyclic-nucleotide-specific bovine brain phosphodiesterase). The assay is described as follows: Measurement of PDE1 inhibition in vitro using IMAP phosphodiesterase assay kit. The class given is biochemical. The conditions noted are these: IMAP fluorescence polarization, FL-GMP substrate, bovine brain phosphodiesterase with calmodulin. The source says: Phosphodiesterase 1B (PDE1B) is a calcium/calmodulin dependent phosphodiesterase enzyme that converts cyclic guanosine monophosphate (cGMP) to 5′-guanosine monophosphate (5′-GMP). PDE1B can also convert a modified cGMP substrate, such as the fluorescent molecule cGMP-fluorescein, to the corresponding GMP-fluorescein. The generation of GMP-fluorescein from cGMP-fluorescein can be quantitated, using, for example, the IMAP (Molecular Devices, Sunnyvale, Calif.) immobilized-metal affinity particle reagent.
Briefly, the IMAP reagent binds with high affinity to the free 5′-phosphate that is found in GMP-fluorescein and not in cGMP-fluorescein. The resulting GMP-fluorescein—IMAP complex is large relative to cGMP-fluorescein. Small fluorophores that are bound up in a large, slowly tumbling, complex can be distinguished from unbound fluorophores, because the photons emitted as they fluoresce retain the same polarity as the photons used to excite the fluorescence.
In the phosphodiesterase assay, cGMP-fluorescein, which cannot be bound to IMAP, and therefore retains little fluorescence polarization, is converted to GMP-fluorescein, which, when bound to IMAP, yields a large increase in fluorescence polarization (Δmp). Inhibition of phosphodiesterase, therefore, is detected as a decrease in Δmp. […]
A decrease in GMP concentration, measured as decreased Δmp, is indicative of inhibition of PDE activity. […]

`CN1C(=O)c2c(nn(Cc3ccc(-c4ccccn4)cc3)c2Nc2ccccc2)N2C1=N[C@@H]1CCC[C@@H]12` [Example 1, (6aR,9aS)-5,6a,7,8,9,9a-hexahydro-5-methyl-3-(phenylamino)-2-((4-Pyridin-2yl)-benzyl)-cyclopent[4,5]imidazo[1,2-a]pyrazolo[4,3-e]pyrimidin-4(2H)-one]: 0.105 nM corresponded to half-maximal inhibition (IC50).
